Entries after “also recorded” stand apart in the source; their conditions may differ. Where two headings read alike, the source gives them in different places.
Key:
acetylcholine = assay: Test Procedure 7: acetylcholine-induced bronchoconstriction in anesthetized guinea pigs; assay type: in vivo, guinea pig; details: 100 mg/kg p.o.
Experimental: Guinea pigs, weighing 250-350 g were anesthetized with 1.5 g/kg i.p. of urethane and prepared for measurements of resistance to pulmonary inflation using a slightly modified Konzett-Rossler preparation (see Test Procedure 2). Histamine phosphate (5 μg/kg as base) was injected four times at 5 minute intervals in order to ascertain that the maximum bronchoconstrictor responsiveness has been obtained. Acetylcholine was injected intravenously at […] 5 minutes following the last injection of histamine and the increase in intratracheal pressure was recorded. Compound b or aminophylline (100 mg/kg p.o.) or the control vehicle were administered to five guinea pigs each, 1 hour before the injection of acetylcholine (1/2 hour before the anesthesia).

histamine = assay: Test Procedure 5: histamine-induced bronchoconstriction in anesthetized guinea pigs; assay type: in vivo, guinea pig
Experimental: Guinea pigs weighing 350 to 400 g were anesthetized ip with 1.5 g/kg urethane and prepared for measurements of resistance to pulmonary inflation using a slightly modified Konzett-Rossler method (see Test Procedure 2). […] The experimental procedure was started after each guinea pig had attained its maximal, repeatable response to histamine. […] Artificial respiration was resumed 25 minutes later. Thirty minutes after the administration of one of the drugs, tne guinea pigs received two of three injections of histamine at 3-minute intervals. The average of these histamine responses (increases in resistance) was expressed as percent of the maximal histamine response obtained with the same guinea pig before the administration of the drug. In addition to sc administration, compound b was also studied following po administration. In these studies, the time interval between po medication and the secondary histamine challenges was increased to 45 minutes.

[1] = Oral toxicity, 5 weeks, rhesus monkeys; assay type: in vivo, rhesus monkey
Experimental: The oral toxicity of compound b at doses of 5.0, 32.0, 75.0 and 200 mg/kg/day for 5 weeks was studied in rhesus monkeys.

SRS-A [2] = assay: Test Procedure 1: antagonism of SRS-A-induced bronchoconstriction in unanesthetized guinea pigs; assay type: in vivo, guinea pig
Experimental: The test compounds were administered orally to four guinea pigs/group 1 hour before the SRS-A challenge. The test compounds were prepared as suspensions in 1% gum tragacanth. Bronchoconstriction was graded 1+ to 3+ according to severity (1+ denoted restlessness and slight thoracic dyspnea, 2+ denoted moderate thoracic dyspnea and 3+ denoted convulsive dyspnea, regardless of whether the guinea pig died of asphyxiation or recovered).

[3] = Oral toxicity, 5 weeks, Charles River CD albino rats; assay type: in vivo, rat
serotonin = assay: Test Procedure 6: serotonin-induced bronchoconstriction in anesthetized guinea pigs; assay type: in vivo, guinea pig
Experimental: Guinea pigs, weighing 275-340 g, were anesthetized and prepared for measurements of resistance to pulmonary inflation using a slightly modified Konzett-Rossler method (see Test Procedure 2). All guinea pigs received 0.1 mg/kg of propranolol iv and 5 minutes later, 50 mcg/kg of serotonin (creatinine complex) iv. Compound b or cyproheptadine were administered iv just before the injection of propranolol at 50 or 5 mg/kg, respectively. Compound b was prepared as a 5% solution in 5% N-methylglucamine and cyproheptadine as a 0.25% aqueous solution.

SRS-A [4] = assay: Test Procedure 3: SRS-A-induced increase in resistance to pulmonary inflation in anesthetized cats; assay type: in vivo, cat
[5] = rhesus monkey, in vivo, po, 200 mg/kg/day
[6] = rat, in vivo, po, 640 mg/kg/day

Experimental for bradykinin: Antagonism of bradykinin-induced bronchoconstriction in guinea pigs was determined by measuring increases in resistance to artificial pulmonary inflation (Konzett-Rossler preparation). […] Due to large variations in bronchoconstricting responses among individual guinea pigs, each guinea pig serves as its own control and was challenged with bradykinin twice. The second response to bradykinin was expressed as percent of the first response to bradykinin. […] All guinea pigs having a first bradykinin response of less than 12 mm Hg were rejected as poor responders. […] In order to augment the bronchoconstrictor response, each guinea pig received 100 mcg propranolol/kg, iv, 5 minutes before the first injection of bradykinin (30 mcg/kg, iv). […] Five minutes after the injection of a test compound the guinea pigs received the second injection of bradykinin and the peak of the response determined. The effects of both test compounds were expressed as % inhibition of bradykinin-induced increase in bronchial resistance to forced inflation, as compared to the levels of bronchial resistance following iv administration of their respective solvent controls.

**Q.** What does the source list for `COc1ccc2c(c1)c1c(n2C(=O)c2ccccc2)CCC(C(=O)O)C1` (stereo not drawn) [Compound b, 9-benzoyl-6-methoxy-1,2,3,4-tetrahydrocarbazole-3-carboxylic acid]?
**A.** % Inhibition (acetylcholine): 9%; Peak Increase in Intracheal Pressure, mm Hg (acetylcholine): 21 ± 4 mm Hg; effect against acetylcholine-induced bronchoconstriction (acetylcholine): inactive; also recorded: ineffectiveness; effect against histamine-induced bronchoconstriction (activity profile) (histamine; guinea pigs): ineffectiveness; inhibition of histamine-induced bronchoconstriction (histamine; oral 100 mg/kg): no significant inhibition; % Inhibition (histamine; po 100 mg/kg): 16%; Histamine-Response in % of Premed. Histamine Response (histamine; po 100 mg/kg): 84 ± 26%; % Inhibition (histamine; sc 100 mg/kg): 8%; Histamine-Response in % of Premed. Histamine Response (histamine; sc 100 mg/kg): 92 ± 2%; inhibition of histamine-induced bronchoconstriction (histamine; sc 100 mg/kg): no significant inhibition; mortality ([1]; oral 5.0, 32.0 and 75.0 mg/kg/day, 5 weeks): no mortality occurred; gross or microscopic histopathologic changes ([1]; rhesus monkey, in vivo): No gross or microscopic histophathologic changes were found; deaths attributed to medication [1, 5]: two deaths attributed to medication occurred; tolerability [1, 5]: not well tolerated; Incidence of Severe Bronchospasms, % (SRS-A [2]; 0.4 mg/kg p.o.): 75%; Incidence of Severe Bronchospasms, No. Bronchosp./No. Tested (SRS-A [2]; 0.4 mg/kg p.o.): 15/20; Incidence of Severe Bronchospasms, % (SRS-A [2]; 1.6 mg/kg p.o.): 42%; Incidence of Severe Bronchospasms, No. Bronchosp./No. Tested (SRS-A [2]; 1.6 mg/kg p.o.): 8/19; inhibition of severe SRS-A induced bronchospasm (SRS-A [2]; 6.2 mg/kg oral): completely inhibited; Incidence of Severe Bronchospasms, % (SRS-A [2]; 6.2 mg/kg p.o.): 0%; Incidence of Severe Bronchospasms, No. Bronchosp./No. Tested (SRS-A [2]; 6.2 mg/kg p.o.): 0/19; Incidence of Severe Bronchospasms, % (SRS-A [2]; 25 mg/kg p.o.): 4%; Incidence of Severe Bronchospasms, No. Bronchosp./No. Tested (SRS-A [2]; 25 mg/kg p.o.): 1/23; Incidence of Severe Bronchospasms, % (SRS-A [2]; 100 mg/kg p.o.): 0%; Incidence of Severe Bronchospasms, No. Bronchosp./No. Tested (SRS-A [2]; 100 mg/kg p.o.): 0/20; Incidence of Severe Bronchospasms, % (SRS-A [2]; 400 mg/kg p.o.): 0%; Incidence of Severe Bronchospasms, No. Bronchosp./No. Tested (SRS-A [2]; 400 mg/kg p.o.): 0/10; ED50 (SRS-A [2]; Cavia porcellus, po, 1 hour before SRS-A, read-out: AED50): 2.3 mg/kg; Potency (Phenylbutazone = 1) (95% confidence limits) (SRS-A [2]; p.o., 1 hour before SRS-A): 4.0 (2.1-8.2); effect against bradykinin-induced bronchoconstriction (activity profile) (bradykinin; guinea pigs): effectiveness; inhibition of bradykinin-induced increases in bronchial resistance (bradykinin; iv): inhibited bradykinin-induced increases in bronchial resistance to inflation in a dose-related manner; % Inhibition (bradykinin; iv 0.33 mg/kg): 12%; Average Increase In Bronchial Resistance (2nd Response in % of 1st Response ± S.E.) (bradykinin; iv 0.33 mg/kg): 76 ± 13%; % Inhibition (bradykinin; iv 1.0 mg/kg): 48%; Average Increase In Bronchial Resistance (2nd Response in % of 1st Response ± S.E.) (bradykinin; iv 1.0 mg/kg): 45 ± 7%; % Inhibition (bradykinin; iv 3.3 mg/kg): 81%; Average Increase In Bronchial Resistance (2nd Response in % of 1st Response ± S.E.) (bradykinin; iv 3.3 mg/kg): 16 ± 3%; % Inhibition (bradykinin; iv 10.0 mg/kg): 84%; Average Increase In Bronchial Resistance (2nd Response in % of 1st Response ± S.E.) (bradykinin; iv 10.0 mg/kg): 14 ± 5%; % Inhibition (bradykinin; iv 33.0 mg/kg): 93%; Average Increase In Bronchial Resistance (2nd Response in % of 1st Response ± S.E.) (bradykinin; iv 33.0 mg/kg): 6 ± 4%; inhibition of bradykinin-induced bronchoconstriction (bradykinin; iv 3.3, 10 and 33 mg/kg): nearly complete inhibition; mortality ([3]; oral 1280 mg/kg/day): all rats died within 18 days; growth rate [3, 6]: slightly depressed; hematocrit [3, 6]: minimally lower than controls; hemoglobin concentration [3, 6]: minimally lower than controls; number of red blood cells [3, 6]: minimally lower than controls; tolerability ([3]; rat, in vivo, po, 1280 mg/kg/day): not well tolerated; effect against serotonin-induced bronchoconstriction (serotonin; guinea pigs): no inhibitory effect; also recorded: ineffectiveness; Increase in Resistance (mm Hg) (serotonin; iv 50 mg/kg, P insign.): 45 ± 8 mm Hg; Inhibition % (serotonin; iv 50 mg/kg, P insign.): 4%; % Inhibition (SRS-A [4]; intravenous 0.01 mg/kg): 30%; Max. Increase in Resistance to Pulm. Inflation, mm Hg ± S.E. (SRS-A [4]; intravenous 0.1 mg/kg): 1.6 ± 0.5 mm Hg; % Inhibition (SRS-A [4]; intravenous 1.0 mg/kg): 98%; increase in resistance in one of seven cats (SRS-A [4]; intravenous 1.0 mg/kg): 0.5 mm Hg; % Inhibition (SRS-A [4]; oral 0.33 mg/kg): 25%; Max. Increase in Resistance to Pulm. Inflation, mm Hg ± S.E. (SRS-A [4]; oral 0.33 mg/kg): 3.1 ± 0.3 mm Hg; % Inhibition (SRS-A [4]; oral 1.0 mg/kg): 49%; Max. Increase in Resistance to Pulm. Inflation, mm Hg ± S.E. (SRS-A [4]; oral 1.0 mg/kg): 2.0 ± 0.8 mm Hg; % Inhibition (SRS-A [4]; oral 3.3 mg/kg): 85%; Max. Increase in Resistance to Pulm. Inflation, mm Hg ± S.E. (SRS-A [4]; oral 3.3 mg/kg): 0.6 ± 0.5 mm Hg; % Inhibition (SRS-A [4]; oral 10.0 mg/kg): 98%; Max. Increase in Resistance to Pulm. Inflation, mm Hg ± S.E. (SRS-A [4]; oral 10.0 mg/kg): 0.1 ± 0.1 mm Hg

Reference: patent publication US4174402A, “Method for the prophylaxis of SRS-A-induced symptoms” (priority 1978, dated 1979)
